Experimental findings from patent US6667053B1, “D and L etherlipid stereoisomers and liposomes” (Elan Pharmaceuticals, Inc., priority 1996, dated 2003) are described below.

Like-named read-outs stand apart in the source and are kept apart here.

What all share (format): cell-based
In assay [1] the test system is L1210 murine lymphocytic leukemia. Nature of the assay: In vitro growth inhibition, SRB assay, L1210. The following applies: read-out: In vitro growth inhibition GI50 (± sd), L1210. How it is done:
(§1) The anti-tumor activities of the D and L etherlipid were evaluated against A549, a human non-small cell lung carcinoma cell line; MCF 7, a human breast carcinoma line and MCF 7/adr, multi-drug resistant human breast carcinoma; were obtained from the DCT Tumor Repository (NCI-Frederick Cancer Research Facility, Frederick, Md.). U-937, a human histiocytic lymphoma cell line, was obtained from the American Type Culture Collection. Stock cultures of these human cell lines were maintained in RPMI 1640 tissue culture media (Life Technologies, Gaithersburg, Md.) supplemented with 10% heat inactivated fetal bovine serum (Life Technologies) and 10 mM HEPES (Life Technologies). Cultures were maintained in exponential growth in a humidified incubator with 5% CO2 and were passaged twice weekly. L1210 and L1210/vmdr, murine lymphocytic leukemias, (Yale University School of Medicine). L1210/vmdr, a selected line of L1210, was transfected with a plasmid (pHaMDR1/A) containing the mdr 1 gene.
(§2) The detailed methodology of the SRB assay is described elsewhere (2,3). […] The bound stain was solubilized with 100 ul of 10 mM Tris buffer (Sigma) and the optical density was read spectrophotometrically at 490 nm (Microplate Reader Model 3550-UV, Biorad, Hercules, Calif.). […] Percent growth was calculated as follows: (T−T0)/(C−T0)×100 where (T)=mean optical density of treated wells at a given drug concentration, (T0)=mean optical density of time zero wells, and (C)=mean optical density of control wells, or if T<T0 where cell killing has occurred, then percent cell death can be calculated as follows: (T−T0)/(T0)×100. By varying drug concentration, dose response curves were generated and the GI50 values were calculated. The GI50 values for each experiment were calculated using data obtained from three duplicate wells on two separate plates. The mean GI50 values and standard deviations were then calculated from the GI50's from each independent experiment.
Background: The SRB assay estimates cell density from bound dye.

In assay [2] the test system is L1210/vmdr murine lymphocytic leukemia (mdr 1 transfected). Nature of the assay: In vitro growth inhibition, SRB assay, L1210/vmdr. The following applies: for GI50: 72 hrs treatment, read-out: In vitro growth inhibition GI50 (± sd), L1210/vmdr. How it is done: as §1
(§3) The detailed methodology of the SRB assay is described elsewhere (2,3). Briefly, 96-well microtiter plates were inoculated with 100 ul of the above cell lines at optimal cell densities, 3500-15,000 cells/well, in medium (RPMI 1640 with L-glutamine (Mediatech, Herndon, Va.)) supplemented with 10% fetal bovine serum (Life Technologies) for all cell lines. The plates were then incubated for 24 hours at 37° C., 100% humidity, and 5% CO2. After the 24 hour incubation, 100 μl of medium was added to the designated time zero plates, then the plates containing adherent cell lines were acid fixed with 50 ul of 50% trichloroacetic acid (wt/vol) (Sigma, St. Louis, Mo.) and refrigerated at 4° C. for 1 hour (the suspension cell lines were acid fixed with 80% trichloroacetic acid). The supernatant was discarded and the plates were rinsed 6 times with water and air dried. […] The bound stain was solubilized with 100 ul of 10 mM Tris buffer (Sigma) and the optical density was read spectrophotometrically at 490 nm (Microplate Reader Model 3550-UV, Biorad, Hercules, Calif.). […] Percent growth was calculated as follows: (T−T0)/(C−T0)×100 where (T)=mean optical density of treated wells at a given drug concentration, (T0)=mean optical density of time zero wells, and (C)=mean optical density of control wells, or if T<T0 where cell killing has occurred, then percent cell death can be calculated as follows: (T−T0)/(T0)×100. By varying drug concentration, dose response curves were generated and the GI50 values were calculated. The GI50 values for each experiment were calculated using data obtained from three duplicate wells on two separate plates. The mean GI50 values and standard deviations were then calculated from the GI50's from each independent experiment.

The subject of assay [3] is A549, a human non-small cell lung carcinoma cell line. Nature of the assay: In vitro growth inhibition, Sulforhodamine B (SRB) assay, A549. The following applies: read-out: In vitro growth inhibition GI50 (± sd), A549. On the procedure:
as §1, §2

For assay [4], the system named is MCF 7/adr, multi-drug resistant human breast carcinoma. Nature of the assay: In vitro growth inhibition, SRB assay, MCF7/adr. As to conditions: 72 hrs treatment, read-out: In vitro growth inhibition GI50 (± sd), MCF7/adr. How it is done:
as §1, §2

Assay [5] relates to U-937, a human histiocytic lymphoma cell line. Nature of the assay: In vitro growth inhibition, SRB assay, U937. As to conditions: read-out: In vitro growth inhibition GI50 (± sd), U937. On the procedure:
as §1, §2

The test system of the next assay is Lewis Lung. Nature of the assay: In vitro growth inhibition, SRB assay, Lewis Lung. As to conditions: 72 hrs treatment, read-out: In vitro growth inhibition GI50 (± sd), Lewis Lung. On the procedure: as §3, with “dried. Then the test compound was added (100 ul aliquots) to the remaining (non-fixed) plates at 2 times the predetermined highest concentration and serially diluted across the plates. Growth control wells received an additional 100 ul of medium.” for “dried.”

The test system of assay [6] is MCF 7, a human breast carcinoma line. Nature of the assay: In vitro growth inhibition, SRB assay, MCF7. The following applies: 72 hrs treatment, read-out: In vitro growth inhibition GI50 (± sd), MCF7. On the procedure: as §1, §2
The subject of assay [7] is platelets in rat whole blood. Nature of the assay: Platelet aggregation response in whole blood (impedance aggregometer), rat blood. How it is done:
(§4) The platelet aggregation effect of the liposomes in the whole blood of various mammals was evaluated using a CHRONO-LOG Dual Chamber Whole Blood Aggregometer Model 560, according to the following protocol:
(§5) Venous blood was collected using 3.8% sodium citrate in a Vacutainer. Dilution ratio is 1 to 9 (citrate solution: blood). The effect of D and L etherlipid and liiposmes containing them on aggregation of platelets from rats, dogs, monkeys and humans was tested.
(§6) Immediately following collection the blood was mix by gentle inversion (maintain at room temperature). Prewarm 500 ul saline in disposable plastic cuvettes. Add 500 ul whole blood or PRP. Add disposable siliconized mini stir bar. Warm diluted blood 5 min at 37° C. prior to testing. Add test samples to aggregation chambers and insert impedance probes.
(§7) Platelet aggregation response was determined by increased resistance using an impedance electrode in a platelet suspension. Resistance measurements were taken 6-8 minutes after addition of the test article to 1 ml whole blood or platelet rich plasma (PRP).

For assay [8], the system named is platelets in human whole blood. Nature of the assay: Platelet aggregation response in whole blood (impedance aggregometer), human blood. How it is done: as §4, §5, §6, §7
For assay [9], the system named is platelets in dog whole blood. Nature of the assay: Platelet aggregation response in whole blood (impedance aggregometer), dog blood. On the procedure:
as §4, §5, §6, §7

Assay [10] deals with PAF binding sites on dog blood platelets. Nature of the assay: Platelet aggregation response in dog whole blood with and without CV-6209. As to conditions: PAF alone, concentration 0.05 μM. How it is done: as §4, §6, §7
To further investigate the platelet aggregation response triggered by the L-ether lipid in dog whole blood, the effect of a compound (CV-6209) that binds PAF binding sites on dog blood platelets was studied.

[11] abbreviates: Mus musculus, L1210, 72 hrs treatment.
The mark [12] stands for this setting: Homo sapiens, A549, 72 hrs treatment.
Setting [13] is: Homo sapiens, U-937, 72 hrs treatment.

In the case of `CCCCCCCCCCCCCCCCCCOCC(COP(=O)([O-])OCC[N+](C)(C)C)OC` (racemic) [rac-EL], the GI50 was found to be 4.18 ± 1.38 µM in assay [1] (72 hrs treatment); 6.09 ± 2.15 µM in assay [2]; 8.36 ± 0.67 µM in assay [3] (72 hrs treatment); 27.8 ± 0.3 µM in [4]; 1.5 ± 0.22 µM in [5] (72 hrs treatment); 27.1 ± 1.98 µM in the assay with Lewis Lung. Besides, the GI50 in [6] was determined as 15.9 ± 6.41 µM.
Take `CCCCCCCCCCCCCCCCCCOC[C@H](COP(=O)([O-])OCC[N+](C)(C)C)OC` [L-EL, 1-O-octadecyl-2-O-methyl-sn-glycero-3-phosphocholine]: the GI50 in assay [1] (setting [11]) was 4.77 ± 0.41 µM; in assay [2] (Mus musculus) it was 8.77 ± 1.47 µM; in [3] (setting [12]), 9.07 ± 0.39 µM; in assay [4] (Homo sapiens, NCI/ADR-RES), 27.9 ± 2.1 µM; in assay [5] (setting [13]), 1.53 ± 0.42 µM; in the assay on Lewis Lung (Lewis lung carcinoma), 29.1 ± 2.05 µM. In addition, the GI50 in [6] (Homo sapiens, MCF7a) turned out to be 18.6 ± 4.57 µM.
In the case of `Nc1ncnc2c1ncn2[C@@H]1O[C@H](COP(=O)(O)OP(=O)(O)O)[C@@H](O)[C@H]1O` [ADP], the “Rat Blood Response” value in assay [7] (concentration 20 μM) is 2.0 Ω. In addition, the “Human Blood Response” value in assay [8] (concentration 20 μM) is 6.3 Ω. Further, the “Dog Blood Response” value in [9] (concentration 20 μM) is 4.0 Ω.
As for `CCCCCCCCCCCCCCCCCCOC[C@@H](COP(=O)([O-])OCC[N+](C)(C)C)OC` [D-EL, 3-O-octadecyl-2-O-methyl-sn-glycero-1-phosphocholine], the GI50 in assay [1] (setting [11]) came to 3.6 ± 1.59 µM; in assay [2] (Mus musculus), 4.87 ± 0.77 µM; in assay [3] (setting [12]) it was 7.96 ± 0.57 µM; in assay [4] (Homo sapiens, NCI/ADR-RES) it was 25.1 ± 1.69 µM; in [5] (setting [13]), 1.41 ± 0.29 µM; in the assay with Lewis Lung (Lewis lung carcinoma) it was 25.4 ± 0.95 µM. Moreover, the GI50 in [6] (Homo sapiens, MCF7a) was determined as 14.6 ± 5.92 µM. Further, the “activity against L1210/vmdr compared to L-EL and the racemate” value in assay [2] (72 hrs) was “slight but statistically significant greater activity”.
In the case of collagen, the “Rat Blood Response” value in [7] (concentration 20 μg/μL) is 34.1 Ω. The “Human Blood Response” value in assay [8] (concentration 20) was 36 Ω. The “Dog Blood Response” value in assay [9] (concentration 20 μg/μL) is listed as 12 Ω.
Take “1-O-2-acetyl-sn-glycero-3-phosphocholine [PAF]”: the “Rat Blood Response” value in [7] (concentration 0.05 μM) was 0 Ω. Further, the “Dog Blood Response” value was 23.5 Ω in assay [10] and 14.8 Ω in assay [9] (concentration 0.05 μM). The “Human Blood Response” value in assay [8] (concentration 0.05 μM) is 6.0 Ω.
